According to US20230250108A1, “TETRAHYDROISOQUINOLINE COMPOUNDS AND USE THEREOF” (JIANGSU SIMCERE PHARMACEUTICAL CO., LTD., priority 2020, published 2023):
Counter-ions that a name gives are not always drawn.

test system: Z-138 cells; assay: Inhibitory activity on tumor cell proliferation (Cell-Titer Glo, 8 days); format: cell-based; conditions: Homo sapiens, 192 h, read-out: Inhibition of cell proliferation Z-138 IC50
Procedure: Materials and cells: Z-138 cells were purchased from ATCC (USA); IMDM medium and penicillin-streptomycin were purchased from Sigma PLC. (USA); horse serum was purchased from Hyclone (USA); 96-well plate was purchased from Corning (USA); and Cell-Titer Glo reagent was purchased from Promega (USA).
Cell culture: Z-138 cells were cultured in an IMDM culture solution containing 10% Horse serum+1% penicillin−streptomycin at 37° C., 5% CO2. Cells in logarithmic growth phase were suitable for the experiment.
Detection of cell proliferation activity: The inhibitory activities of the compounds on the proliferation of Z-138 cells were detected by using the Cell-Titer Glo reagent. The concentrations of the cells were adjusted, and 180 μL was inoculated in each well of the 96-well plate (500/well) and equilibrated for 10-15 minutes at 37° C., 5% CO2. 20 μL of a culture solution containing the compounds was added into each well with the final concentration reaching 0-300 nM (initial concentration: 300 nM, 3-fold dilution, for 10 points), and the DMSO content was 0.1%. The cell plate was placed at 37° C., 5% CO2 and incubated for 8 days. Culture solution was replaced at day 4: 100 μL of the supernatant was slowly aspirated and 100 μL of a fresh culture solution containing the compounds was provided as a supplement while the concentrations of the compounds were held constant. The cell viability was detected by using the Cell-Titer Glo reagent.

Row | IC50 [nM] | SMILES
1 | 1.93 | CCN1CCN(C[C@@H](O)[C@@H]2Cc3ccccc3CN2)C(=O)c2ccc(C(=O)N3CCC4(CCOCC4)C3)cc21 [Compound 010, 1-ethyl-4-((R)-2-hydroxy-2-((S)-1,2,3,4-tetrahydroisoquinolin-3-yl)ethyl)-8-(8-oxa-2-azaspiro[4.5]decane-2-carbonyl)-1,2,3,4-tetrahydro-5H-benzo[e][1,4]diazepin-5-one hydrochloride]
2 | 2.36 | Cl.[2H]C([2H])([2H])OC1CC2(CCN(C(=O)c3ccc4c(c3)N(CC)CCN(C[C@@H](O)[C@@H]3Cc5ccccc5CN3)C4=O)CC2)C1 [Compound 027, 1-ethyl-4-((R)-2-hydroxy-2-((S)-1,2,3,4-tetrahydroisoquinolin-3-yl)ethyl)-8-(2-(methoxy-d3)-7-azaspiro[3.5]nonane-7-carbonyl)-1,2,3,4-tetrahydro-5H-benzo[e][1,4]diazepin-5-one hydrochloride]
3 | 2.37 | CCN1CCN(C[C@@H](O)[C@@H]2Cc3ccccc3CN2)C(=O)c2ccc(C(=O)N3CCC4(CC3)CC4(F)F)cc21 [Compound 013, 8-(1,1-difluoro-6-azaspiro[2.5]octane-6-carbonyl)-1-ethyl-4-((R)-2-hydroxy-2-((S)-1,2,3,4-tetrahydroisoquinolin-3-yl)ethyl)-1,2,3,4-tetrahydro-5H-benzo[e][1,4]diazepin-5-one hydrochloride]
4 | 16.8 | CCN1CCN(C[C@@H](O)[C@@H]2Cc3ccccc3CN2)C(=O)c2ccc(C(=O)N3CC4COCC4C3)cc21 (stereo partly drawn) [Compound 023, 1-ethyl-8-(hexahydro-1H-furo[3,4-c]pyrrole-5-carbonyl)-4-((R)-2-hydroxy-2-((S)-1,2,3,4-tetrahydroisoquinolin-3-yl)ethyl)-1,2,3,4-tetrahydro-5H-benzo[e][1,4]diazepin-5-one hydrochloride]
5 | 2.2 | CCN1CCN(C[C@@H](O)[C@@H]2Cc3ccccc3CN2)C(=O)c2ccc(C(=O)N3CC4(CCC(OC)CC4)C3)cc21 [Compound 011, 1-ethyl-4-((R)-2-hydroxy-2-((S)-1,2,3,4-tetrahydroisoquinolin-3-yl)ethyl)-8-(7-methoxy-2-azaspiro[3.5]nonane-2-carbonyl)-1,2,3,4-tetrahydro-5H-benzo[e][1,4]diazepin-5-one hydrochloride]
6 | 45.1 | CCN1CCN(C[C@@H](O)[C@@H]2Cc3ccccc3CN2)C(=O)c2ccc(C(=O)N(C)Cc3ccccc3)cc21 [Compound 016, N-benzyl-1-ethyl-4-((R)-2-hydroxy-2-((S)-1,2,3,4-tetrahydroisoquinolin-3-yl)ethyl)-N-methyl-5-oxo-2,3,4,5-tetrahydro-1H-benzo[e][1,4]diaza-8-carboxamide hydrochloride]
7 | 11.7 | CCN1CCN(C[C@@H](O)[C@@H]2Cc3ccccc3CN2)C(=O)c2ccc(C(=O)N3CCOCC3)cc21 [Compound 014, 1-ethyl-4-((R)-2-hydroxy-2-((S)-1,2,3,4-tetrahydroisoquinolin-3-yl)ethyl)-8-(morpholine-4-carbonyl)-1,2,3,4-tetrahydro-5H-benzo[e][1,4]diazepin-5-one hydrochloride]
8 | 5.62 | CCN1CCN(C[C@@H](O)[C@@H]2Cc3ccccc3CN2)C(=O)c2ccc(C(=O)N3CCC4(CC3)CC(=O)C4)cc21 [Compound 026, 1-ethyl-4-((R)-2-hydroxy-2-((S)-1,2,3,4-tetrahydroisoquinolin-3-yl)ethyl)-8-(2-oxo-7-azaspiro[3.5]nonane-7-carbonyl)-1,2,3,4-tetrahydro-5H-benzo[e][1,4]diazepin-5-one]
9 | 138 | CCN1CCN(C[C@@H](O)[C@@H]2Cc3ccccc3CN2)C(=O)c2ccc(C(=O)N3CC4(COC4)C3)cc21 [Compound 025, 1-ethyl-4-((R)-2-hydroxy-2-((S)-1,2,3,4-tetrahydroisoquinolin-3-yl)ethyl)-8-(2-oxa-6-azaspiro[3.3]heptane-6-carbonyl)-1,2,3,4-tetrahydro-5H-benzo[e][1,4]diazepin-5-one]
10 | 27.6 | CCN1CCN(C[C@@H](O)[C@@H]2Cc3ccccc3CN2)C(=O)c2ccc(C(=O)N(C)CCc3ccc(F)cc3)cc21 [Compound 017, 1-ethyl-N-(4-fluorophenethyl)-4-((R)-2-hydroxy-2-((S)-1,2,3,4-tetrahydroisoquinolin-3-yl)ethyl)-N-methyl-5-oxo-2,3,4,5-tetrahydro-1H-benzo[e][1,4]diazepine-8-carboxamide hydrochloride]
11 | 11.1 | CCN1CCN(C[C@@H](O)[C@@H]2Cc3ccccc3CN2)C(=O)c2ccc(C(=O)N3CCN(C(C)=O)CC3)cc21 [Compound 015, 8-(4-acetylpiperazine-1-carbonyl)-1-ethyl-4-((R)-2-hydroxy-2-((S)-1,2,3,4-tetrahydroisoquinolin-3-yl)ethyl)-1,2,3,4-tetrahydro-5H-benzo[e][1,4]diazepin-5-one hydrochloride]
12 | 4.09 | CCN1CCN(C[C@@H](O)[C@@H]2Cc3ccccc3CN2)C(=O)c2ccc(C(=O)N3CCC4(CC4)C(F)(F)C3)cc21 [Compound 012, 8-(4,4-difluoro-6-azaspiro[2.5]octane-6-carbonyl)-1-ethyl-4-((R)-2-hydroxy-2-((S)-1,2,3,4-tetrahydroisoquinolin-3-yl)ethyl)-1,2,3,4-tetrahydro-5H-benzo[e][1,4]diazepin-5-one hydrochloride]
13 | 26 | CCN1CCN(C[C@@H](O)[C@@H]2Cc3ccccc3CN2)C(=O)c2ccc(C(=O)N(C)CCc3cccnc3)cc21 [Compound 018, 1-ethyl-4-((R)-2-hydroxy-2-((S)-1,2,3,4-tetrahydroisoquinolin-3-yl)ethyl)-N-methyl-5-oxo-N-(2-(pyridin-3-yl)ethyl)-2,3,4,5-tetrahydro-1H-benzo[e][1,4]diazepine-8-carboxamide hydrochloride]
14 | 20.4 | CCN(CC)C(=O)c1ccc2c(c1)N(CC)CCN(C[C@@H](O)[C@@H]1Cc3ccccc3CN1)C2=O [Compound 019, N,N,1-triethyl-4-((R)-2-hydroxy-2-((S)-1,2,3,4-tetrahydroisoquinolin-3-yl)ethyl)-5-oxo-2,3,4,5-tetrahydro-1H-benzo[e][1,4]diazepine-8-carboxamide hydrochloride]
15 | 8.35 | CCN1CCN(C[C@@H](O)[C@@H]2Cc3ccccc3CN2)C(=O)c2ccc(C(=O)N3CCC4(CC3)CC(N(C)C)C4)cc21 [Compound 021, 8-(2-(dimethylamino)-7-azaspiro[3.5]nonane-7-carbonyl)-1-ethyl-4-((R)-2-hydroxy-2-((S)-1,2,3,4-tetrahydroisoquinolin-3-yl)ethyl)-1,2,3,4-tetrahydro-5H-benzo[e][1,4]diazepin-5-one hydrochloride]

Row | SMILES | IC50 [nM]
16 | CCN1CCN(C[C@@H](O)[C@@H]2Cc3ccccc3CN2)C(=O)c2ccc(C(=O)N3C4CCC3CC(O)C4)cc21 (stereo partly drawn) [Compound 022, 1-ethyl-4-((R)-2-hydroxy-2-((S)-1,2,3,4-tetrahydroisoquinolin-3-yl)ethyl)-8-(3-hydroxy-8-azabicyclo[3.2.1]octane-8-carbonyl)-1,2,3,4-tetrahydro-5H-benzo[e][1,4]diazepin-5-one hydrochloride] | 14.7
17 | O=C1c2ccc(C(=O)N3C4CCC3COC4)cc2OCCN1C[C@@H](O)[C@@H]1Cc2ccccc2CN1 [Compound 007, 8-(3-oxa-8-azabicyclo[3.2.1]octane-8-carbonyl)-4-((R)-2-hydroxy-2-((S)-1,2,3,4-tetrahydroisoquinolin-3-yl)ethyl)-3,4-dihydrobenzo[f][1,4]oxazepin-5(2H)-one] | 7.55
18 | CCN1CCN(C[C@@H](O)[C@@H]2Cc3ccccc3CN2)C(=O)c2ccc(C(=O)N3C4CCCC3COC4)cc21 [Compound 020, 8-(3-oxa-9-azabicyclo[3,3,1]nonane-9-carbonyl)-1-ethyl-4-((R)-2-hydroxy-2-((S)-1,2,3,4-tetrahydroisoquinolin-3-yl)ethyl)-1,2,3,4-tetrahydro-5H-benzo[e][1,4]diazepin-5-one hydrochloride] | 3.71

biological target: T1, PRMT5/MEP50 (Homo sapiens, UniProt O14744); assay: PRMT5 enzymatic activity inhibition experiment (AlphaScreen); format: biochemical; conditions: PRMT5/MEP50, Histone H4 peptide substrate; read-out: Inhibition of enzymatic activity IC50
T1 construct: purchased BPS Bioscience Inc. (USA)
T1 sequence (O14744 2-637 limits assumed): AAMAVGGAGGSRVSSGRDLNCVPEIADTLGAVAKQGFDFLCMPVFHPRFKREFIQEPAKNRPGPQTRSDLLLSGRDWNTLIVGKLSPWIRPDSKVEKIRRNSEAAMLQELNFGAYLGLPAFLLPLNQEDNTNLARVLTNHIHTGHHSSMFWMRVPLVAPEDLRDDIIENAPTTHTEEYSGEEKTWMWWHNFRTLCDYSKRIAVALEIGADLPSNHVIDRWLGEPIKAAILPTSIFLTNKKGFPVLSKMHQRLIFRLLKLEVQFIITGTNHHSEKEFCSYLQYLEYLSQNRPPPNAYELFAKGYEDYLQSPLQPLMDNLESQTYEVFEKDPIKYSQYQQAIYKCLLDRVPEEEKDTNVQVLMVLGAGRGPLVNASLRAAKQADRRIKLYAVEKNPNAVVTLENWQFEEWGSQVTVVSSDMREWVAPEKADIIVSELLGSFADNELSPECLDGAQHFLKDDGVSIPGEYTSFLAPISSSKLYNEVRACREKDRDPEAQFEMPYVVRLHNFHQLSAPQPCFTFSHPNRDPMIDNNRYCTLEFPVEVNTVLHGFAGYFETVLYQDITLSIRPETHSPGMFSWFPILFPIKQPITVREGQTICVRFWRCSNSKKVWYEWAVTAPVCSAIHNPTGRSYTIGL
T1 sequence (Q9BQA1 2-342 partner limits assumed): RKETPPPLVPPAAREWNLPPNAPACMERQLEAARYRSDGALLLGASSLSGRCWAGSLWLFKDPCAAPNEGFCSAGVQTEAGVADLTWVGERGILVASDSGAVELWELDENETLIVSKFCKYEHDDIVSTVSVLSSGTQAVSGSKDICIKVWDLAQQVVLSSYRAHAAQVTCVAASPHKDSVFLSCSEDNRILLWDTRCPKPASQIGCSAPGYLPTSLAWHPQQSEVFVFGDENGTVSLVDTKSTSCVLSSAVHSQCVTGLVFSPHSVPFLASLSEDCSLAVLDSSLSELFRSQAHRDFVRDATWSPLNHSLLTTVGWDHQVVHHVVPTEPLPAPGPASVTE
From the text: Materials: PRMT5/MEP50 proteins were purchased from BPS Bioscience Inc. (USA); Histone H4 Peptide substrate was purchased from Sangon Biotech (Shanghai) Co., Ltd.; Anti-Histone H4 (symmetric dimethyl R3) antibody—ChIP Grade was purchased from Abcam PLC. (USA); S-(5′-Adenosyl)-L-methionine chloride dihydrochloride was purchased from Sigma PLC. (USA); 384-well plate, AlphaScreen Streptavidin Donor beads, AlphaScreen Protein A Acceptor beads, and Envision 2104 multi-label Reader were purchased from Perkin-Elmer Instruments (USA) Corporation; and Echo 550 Liquid Handler was purchased from Labcyte Inc. (USA).
Enzymatic activity assay: The compounds were added into a 384-well plate by using the Echo 550 Liquid Handler with the final concentration of 0-1000 nM (initial concentration: 1000 nM, 3-fold dilution, for 10 points), and the DMSO content was 0.5%. 10 μL of a 2× PRMT5/MEP50 solution was added into each well and incubated at room temperature for 30 minutes. 10 μL of 2× PRMT5/MEP50 substrate solution was added to each well to start the reaction and incubated at room temperature for 60 minutes. A 6× detection reagent containing AlphaScreen Protein A Acceptor beads and Anti-Histone H4 (symmetric dimethyl R3) antibodies was prepared and 5 μL was added to each well. The plate was incubated at room temperature for 60 minutes. A 6× detection reagent containing AlphaScreen Streptavidin Donor beads was prepared and 5 μL was added to each well. The plate was incubated at room temperature for 60 minutes. The signal values were detected by using the Envision.

Row | SMILES | IC50 [nM]
19 | O=C1c2ccc(C(=O)N3C4CCC3COC4)cc2OCCN1C[C@@H](O)[C@@H]1Cc2ccccc2CN1 [Compound 007, 8-(3-oxa-8-azabicyclo[3.2.1]octane-8-carbonyl)-4-((R)-2-hydroxy-2-((S)-1,2,3,4-tetrahydroisoquinolin-3-yl)ethyl)-3,4-dihydrobenzo[f][1,4]oxazepin-5(2H)-one] | 7.66
